Experimental data reported in patent US20240216250A1, “COSMETIC PEPTIDES FOR IMPROVING SKIN REJUVENATION” (Lean Life Sciences, Inc., priority 2021, published 2024).
Entries after “also recorded” stand apart in the source; their conditions may differ.

Assays:
skin cells [1] = assay: Fructose, glucose and sucrose concentration in skin cells, same manner as Example 1-1; assay type: cell-based; settings: Example 1-18, present tense
Method: (§1) Fructose concentration in 3T3-L1 cell lysates was measured using the Fructose Assay Kit (Abcam, Cambridge, UK). Six-well plates were seeded with 5×10^5 3T3-L1 cells/well one day before treating with 150 μM peptide. After 48 hours of treatment, the cells were harvested and fructose concentrations were assayed according to the manufacturer's instruction.
An additional group of skin cells are treated with one of KGGRAKD, KGG, GGR, GRA, RAK, AKD, DKA, KAR, ARG, RGG, GGK, and DKARGGK in the same manner as Example 1-1.
An additional group of skin cells were treated with […] (SEQ ID NO: 5) in the same manner as Example 1-1.
(§2) An additional group of skin cells are treated with one of […] (SEQ ID NO: 3) and […] (SEQ ID NO: 4) in the same manner as Example 1-1.

skin cells [2] = assay: Collagen and fibronectin levels in skin cells upon peptide treatment; assay type: cell-based; settings: Example 1-18, at a particular concentration, present tense
Method: as §2
The fructose, glucose, and sucrose concentrations in the groups where the above peptides are treated are not affected (data not shown), while the extra cellular matrix molecules, collagen and fibronectin, are determined.

DIO mice = assay: Body weight gain in DIO mice: obesity progression model (OPM) and obesity model (OM); assay type: in vivo; settings: for Prevention of body weight gain: pre-obese OPM mice on HFD; for Anti-obesity efficacy (body weight): oral administration
Method: Prior to oral administration, peptides were administered to DIO mice via intraperitoneal (IP) and subcutaneous (SC) injections.
In the first phase, peptides were tested on pre-obese mice that were being fed high fat diet (HFD) to induce obesity (obesity progression model, OPM). In the second phase, these peptides were given to mice that had already developed obesity (obesity model, OM). […] As the activity of these three peptides varies depending on the injection route and the disease status, all three peptides, GGR, RAK, and AKD, were tested by oral administration.
Prior to oral administration, GGR, RAK, AKD, full-length ATS, and scrambled RKG peptides were administered to OPM mice via IP and SC injections to further screen an ideal peptide composition. PBS was included as a vehicle group. GGR, RAK, and AKD peptides were discovered to impede body weight gain in OPM mice. GGR and RAK were effective when given IP injections and AKD was effective by SC injections (FIGS. 4 and 5).
The second phase signified the post-obesity stage, where the same methods from phase 1 were used on OM mice.
(§3) GGR, RAK, and AKD peptides were tested in OPM and OM mice by oral administration. […] In obesity progression, adipocytes increase in both number and size due to escalating lipid accumulation (Parlee, S. D., et al., Methods Enzymol 537, 93-122, (2014)). Using the methods described above, abdominal fat pads of GGR, RAK, AKD, or PBS-treated DIO mice were histologically analyzed. Epididymal fat tissues were harvested from two mice per experimental group. All samples were fixed in 4% paraformaldehyde, H&E-stained, and imaged. At a 10× magnification, adipocyte cell counting was performed on the digital slide images using an automated adipocyte counting macro with the ImageJ software. A default thresholding method was used and [cell] sizing boundaries of 40-40,000 were set. Limitations of the segmentation tool led to some erroneous selections or regions of interest (ROI), which were manually corrected by adding or erasing lines. The number of cells per representative field were then determined using the ROI manager in ImageJ. Two or three high power fields (hpf) per tissue and two tissue samples per group were analyzed to reduce variability. Average cell count for each group was calculated accordingly. Areas of all adipocytes of interest were measured using the ROI measurement tool (ImageJ) and average area per cell was calculated accordingly.

3T3-L1 mature adipocytes = assay: Lipid accumulation in 3T3-L1 adipocytes by Oil Red O staining, with cell count; assay type: cell-based, mouse; settings: for Decrease in degree of lipid accumulation: 3T3-L1 mature adipocytes, quantitative Oil Red O analysis, Day 21 (H of FIG. 3); for Number and size of lipid droplets in adipocytes: Oil Red O, microscopy, peptides at 100 μM, three times per week for three weeks (Day 21), vs non-treated control; for Reduction of lipid accumulation: murine-based in vitro systems
Method: FIG. 3: Representative photomicrographs showing Oil Red O-stained mature adipocytes treated with peptides at 100 μM (Day 21). H: Quantitative analysis of the lipids accumulated in the adipocytes (Day 21). Control absorbance: 0.526 (Red line). I: Relative cell counts on day 21.
The effects of the minimal short peptides in blocking lipid accumulation in adipocytes were compared with their parent full-length peptide. After generating five different 3 amino acid fragments (KGG, GGR, GRA, RAK, and AKD) from the original ATS peptide (KGGRAKD (SEQ ID NO:1)), each peptide was administered to 3T3-L1 pre-adipocytes in five varying concentrations. Peptides were treated to the adipocytes three times per week for three weeks. Oil Red O staining was utilized to assess the lipid contents in mature adipocytes in culture. The morphological characteristics of 3T3-L1 mature adipocytes were observed by microscopy. […] Furthermore, the lipids were quantitatively analyzed.
The number of viable cells is counted prior to Oil Red O staining using Cell Counting Kit 8 (Dojindo). This cell viability study allows one to determine potential toxicities of the peptides and compensate for cell number variation-causing artifacts. Oil Red O is dissolved in isopropanol at […] to create a working solution. 12 ml of Oil Red O working solution is mixed with 8 ml dH2O and incubated for 10 minutes. This solution is then filtered using a 0.2 μm syringe filter. Adipocytes seeded on 96-well plates are washed with PBS twice. 10% formaldehyde is added for initial fixation and the plates are incubated for at least 30 minutes. The formaldehyde is removed and the cells are once again washed twice, this time with dH2O. 60% isopropanol is added to each well. The plates are incubated for 5 minutes. The isopropanol is removed from the wells and replaced with Oil Red O working solution. The plates are incubated for an additional 10 minutes. The Oil Red O solution is removed and washed four times with dH2O. Lastly, digital micrographs of the lipid droplets in adipocytes are taken using a light microscope. After the staining protocol, all plates are washed three times with 60% isopropanol. Each time, 5 minutes of gentle rocking was used. The Oil Red O is extracted with 100% isopropanol with gentle rocking for 5 minutes. 200 μl isopropanol per well is used as a background to measure absorbance at 492 nm using a BioTek microplate reader.

3T3-L1 cells = assay: Fructose, glucose and sucrose concentration in adipocytes (3T3-L1 cell lysates, Fructose Assay Kit); assay type: cell-based, mouse
Method: as §1
In order to confirm the effect of peptides on reducing the fructose level in adipocytes, three groups of adipocytes were prepared. Among the three groups, one group was treated with GGR, and another group was treated with RAK. The remaining group was not treated with any peptides and used as a control group. […] Fructose—an intermediate metabolite of glucose—was measured to further probe glucose metabolism. 3T3-L1 cells treated with either peptide had lower fructose concentrations than untreated cells (FIG. 1).
An additional group of adipocytes are treated with one of KGGRAKD, KGG, GGR, GRA, RAK, AKD, DKA, KAR, ARG, RGG, GGK, and DKARGGK in the same manner as Example 1-1.

[3] = test system: abdominal fat pads of DIO mice; assay: Histological analysis of fat pads of DIO mice (adipocyte number and size); assay type: in vivo; settings: epididymal fat
Method: FIG. 10. Histological analysis fat pads. An automated system detected and counted adipocytes (yellow line). Adipocyte number and size: average of 3 hpf images from 2 mice (total 6 images/group).
as §3
The primary function of adipocytes is to store energy in the form of lipids. The volume of lipid stored in an adipocyte cell increases as the third power of the diameter. Because mature adipocytes are composed of large lipid droplets that are surrounded by very thin cytoplasmic layers, the increase in volume of an adipocyte cell likely indicates increased lipid storage. Thus, smaller adipocyte size/area translates to reduced lipid accumulation.

[4] = Examples 1-2 to 1-11, same manner as Example 1-1
[5] = post-obese OM mice, IP injection
[6] = post-obese OM mice, SC injection
[7] = 3T3-L1 cells, 150 μM peptide, 48 hours, vs untreated control (FIG. 1)

Substance: ACSSSPSKHCGGGSESPLKRQG
- Fructose concentration in skin cells (skin cells [1]): not affected
- Glucose concentration in skin cells (skin cells [1]): not affected
- Sucrose concentration in skin cells (skin cells [1]): not affected
- Collagen in skin cells vs control group (skin cells [2]): significantly higher than the control group
- Fibronectin in skin cells vs control group (skin cells [2]): significantly higher than the control group

Substance: ACTGSTQHQGGGSEHGAMEI
- Fructose concentration in skin cells (skin cells [1]): not affected
- Glucose concentration in skin cells (skin cells [1]): not affected
- Sucrose concentration in skin cells (skin cells [1]): not affected
- Collagen in skin cells vs control group (skin cells [2]): significantly higher than the control group
- Fibronectin in skin cells vs control group (skin cells [2]): significantly higher than the control group

Substance: AKD
- Prevention of body weight gain (DIO mice; SC injection): best working peptide; also recorded: effective
- Anti-obesity efficacy (body weight) (DIO mice; pre-obese OPM mice): efficacious over GGR
- Decrease in degree of lipid accumulation (3T3-L1 mature adipocytes): approximately 20%
- Number and size of lipid droplets in adipocytes (3T3-L1 mature adipocytes): smaller than those in the non-treated control
- Reduction of lipid accumulation (3T3-L1 mature adipocytes): effective in reducing lipid accumulation
- Fructose concentration in adipocytes vs control group (3T3-L1 cells; [4]): significantly lower than the control group

Substance: ARG
- Fructose concentration in adipocytes vs control group (3T3-L1 cells; [4]): significantly lower than the control group

Substance: DKA
- Fructose concentration in adipocytes vs control group (3T3-L1 cells; [4]): significantly lower than the control group

Substance: DKARGGK
- Fructose concentration in adipocytes vs control group (3T3-L1 cells; [4]): significantly lower than the control group

Substance: GGK
- Fructose concentration in adipocytes vs control group (3T3-L1 cells; [4]): significantly lower than the control group

Substance: GGR
- Prevention of body weight gain / body weight change (DIO mice; [5]): positive effects on prevention of body weight gain
- Prevention of body weight gain / body weight change (DIO mice; [6]): effective
- Prevention of body weight gain (DIO mice; IP injection): positive effects on prevention of body weight gain; also recorded: effective
- Decrease in degree of lipid accumulation (3T3-L1 mature adipocytes): approximately 20%
- Number and size of lipid droplets in adipocytes (3T3-L1 mature adipocytes): smaller than those in the non-treated control
- Reduction of lipid accumulation (3T3-L1 mature adipocytes): effective in reducing lipid accumulation
- Fructose concentration in adipocytes vs control group (3T3-L1 cells; [7]): significantly lower than the control group

Substance: GRA
- Number and size of lipid droplets in adipocytes (3T3-L1 mature adipocytes): moderate differences in the morphology of lipid droplets
- Fructose concentration in adipocytes vs control group (3T3-L1 cells; [4]): significantly lower than the control group

Substance: KAR
- Fructose concentration in adipocytes vs control group (3T3-L1 cells; [4]): significantly lower than the control group

Substance: KGG
- Number and size of lipid droplets in adipocytes (3T3-L1 mature adipocytes): moderate differences in the morphology of lipid droplets
- Fructose concentration in adipocytes vs control group (3T3-L1 cells; [4]): significantly lower than the control group

Substance: RAK
- Prevention of body weight gain / body weight change (DIO mice; [5]): positive effects on prevention of body weight gain
- Prevention of body weight gain / body weight change (DIO mice; [6]): effective
- Anti-obesity efficacy (body weight) (DIO mice; post-obese OM mice): has anti-obesity efficacy
- Prevention of body weight gain (DIO mice; IP injection): positive effects on prevention of body weight gain; also recorded: effective
- Anti-obesity efficacy (body weight) (DIO mice; pre-obese OPM mice): efficacious over GGR; also recorded: has anti-obesity efficacy
- Decrease in degree of lipid accumulation (3T3-L1 mature adipocytes): approximately 20%
- Number and size of lipid droplets in adipocytes (3T3-L1 mature adipocytes): smaller than those in the non-treated control
- Reduction of lipid accumulation (3T3-L1 mature adipocytes): effective in reducing lipid accumulation
- Fructose concentration in adipocytes vs control group (3T3-L1 cells; [7]): significantly lower than the control group
- Average cell count per field ([3]; adipocytes, 10× magnification, ImageJ, rank among all experimental groups (FIG. 10)): highest
- Activity by histological analysis of the fat pads ([3]; H&E, DIO mice): more active than GGR; also recorded: highest efficacy
- Average adipocyte area per cell ([3]; ImageJ ROI, rank among all experimental groups (FIG. 10)): lowest

Substance: RGG
- Fructose concentration in adipocytes vs control group (3T3-L1 cells; [4]): significantly lower than the control group

Substance: RKG [reference compound]
- Anti-obesity effects (DIO mice; IP and SC studies, regardless of injection route or schedule): no anti-obesity effects
- Prevention of body weight gain / body weight change (DIO mice; [5]): did not show meaningful efficacy over the vehicle group
- Prevention of body weight gain (DIO mice; IP injection): did not show meaningful efficacy over the vehicle group; also recorded: no anti-obese effects
- Prevention of body weight gain (DIO mice; SC injection): no anti-obese effects
